This experiment relates to P388 leukemia ip, CD2F1 mice, survival T/C. Kind of experiment: NCI In Vivo Anticancer Drug Screen. Data for tumor model P388 Leukemia (intraperitoneal) in CD2F1 (CDF1) mice. Conditions: endpoint: median survival time, higher = longer survival. The gist of the method: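 Mice carrying the transplanted tumor received test compound or vehicle. Survival was recorded in each group, and the value is the treated-group measurement divided by that of the vehicle-treated control group.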

[1] abbreviates: dose: 50.0 mg/kg/injection, schedule: Q01DX009 (ip), vehicle: Klucel (hydroxypropylcellulose) (HPC).
Where [2] appears, read: dose: 50.0 mg/kg/injection, schedule: Q01DX009 (ip), vehicle: saline.
The mark [3] stands for this setting: dose: 100.0 mg/kg/injection, schedule: Q01DX009 (ip), vehicle: Klucel (hydroxypropylcellulose) (HPC).
The mark [4] stands for this setting: dose: 100.0 mg/kg/injection, schedule: Q01DX009 (ip), vehicle: saline.
Setting [5] is: dose: 200.0 mg/kg/injection, schedule: Q01DX009 (ip), vehicle: Klucel (hydroxypropylcellulose) (HPC).
Where [6] appears, read: dose: 200.0 mg/kg/injection, schedule: Q01DX009 (ip), vehicle: saline.
The mark [7] stands for this setting: dose: 50.0 mg/kg/injection, schedule: Q01DX009 (ip), vehicle: saline with Tween-80.

Values joined by “and” are separate entries in the source; they are usually repeats but may differ in a detail not shown here. Identical values can stand only once. Toxic doses and inconclusive results are not listed.

In the case of `CCS(=O)(=O)OCCCNCCCOS(=O)(=O)CC`, the T/C (dose: 12.5 mg/kg/injection, schedule: Q01DX001 (ip), vehicle: saline) is 124 % of control; the T/C (dose: 12.5 mg/kg/injection, schedule: Q04DX003 (ip), vehicle: saline) is 154 % of control; the T/C (dose: 25.0 mg/kg/injection, schedule: Q01DX001 (ip), vehicle: saline) is 86 % of control; the T/C (dose: 25.0 mg/kg/injection, schedule: Q01DX009 (ip), vehicle: saline) is 215 % of control; the T/C (dose: 25.0 mg/kg/injection, schedule: Q04DX003 (ip), vehicle: saline) was 160 % of control; the T/C under setting [1] was 201 % of control. In addition, the T/C is, setting by setting: under setting [2], 268 % of control; (dose: 50.0 mg/kg/injection, schedule: Q04DX003 (ip), vehicle: saline) 193 % of control; (dose: 100.0 mg/kg/injection, schedule: Q01DX001 (ip), vehicle: saline) 156 % of control; under setting [3], 199 % of control; under setting [4], 277 % of control; (dose: 100.0 mg/kg/injection, schedule: Q04DX003 (ip), vehicle: saline) 209 % of control. The T/C (dose: 200.0 mg/kg/injection, schedule: Q01DX001 (ip), vehicle: saline) was 173 % of control; the T/C under setting [5] is 94 % of control; the T/C under setting [6] was 175 % of control; the T/C (dose: 200.0 mg/kg/injection, schedule: Q04DX003 (ip), vehicle: saline) is 272 % of control; the T/C (dose: 400.0 mg/kg/injection, schedule: Q01DX001 (ip), vehicle: saline) was 181 % of control.
Consider `CCN1CC2(C)CCC(OC)C34C1[C@H](C(=O)[C@@H]23)[C@]1(O)CC[C@H]2C[C@H]4[C@H]1C(=O)O2` (some centres not stated), for which the T/C is, setting by setting: (dose: 1.0 mg/kg/injection, schedule: Q01DX009 (ip), vehicle: Klucel (hydroxypropylcellulose) (HPC)) 95 % of control; (dose: 2.0 mg/kg/injection, schedule: Q01DX009 (ip), vehicle: Klucel (hydroxypropylcellulose) (HPC)) 96 % of control; (dose: 4.0 mg/kg/injection, schedule: Q01DX009 (ip), vehicle: Klucel (hydroxypropylcellulose) (HPC)) 98 % of control.
Consider `CCCCCc1cc(O)c2c(c1)OC(C)(CCC=C(C)C)C=C2` (configuration not stated), for which the T/C was 100 % of control (dose: 6.25 mg/kg/injection, schedule: Q01DX009 (ip), vehicle: saline with Tween-80); 110 % of control (dose: 12.5 mg/kg/injection, schedule: Q01DX009 (ip), vehicle: saline with Tween-80); 109 % of control (dose: 25.0 mg/kg/injection, schedule: Q01DX009 (ip), vehicle: saline with Tween-80); 112 % of control under setting [7].
Take `CCO/C=C/C=C1C(=O)N(C)C(=O)N(C)C1=O`: the T/C by setting is: (dose: 25.0 mg/kg/injection, schedule: Q01DX009 (ip), vehicle: saline + Tween-80 + alcohol) 100 % of control and 108 % of control; (dose: 50.0 mg/kg/injection, schedule: Q01DX009 (ip), vehicle: saline + Tween-80 + alcohol) 111 % of control and 118 % of control; (dose: 100.0 mg/kg/injection, schedule: Q01DX009 (ip), vehicle: saline + Tween-80 + alcohol) 108 % of control and 117 % of control; (dose: 200.0 mg/kg/injection, schedule: Q01DX009 (ip), vehicle: saline + Tween-80 + alcohol) 115 % of control and 119 % of control; (dose: 400.0 mg/kg/injection, schedule: Q01DX009 (ip), vehicle: saline + Tween-80 + alcohol) 103 % of control.
Take `C=C1CC/C=C(\C)CCC2C1CC2(C)C` (configuration not stated): the T/C is, setting by setting: (dose: 12.5 mg/kg/injection, schedule: Q01DX009 (ip), vehicle: Klucel (hydroxypropylcellulose) (HPC)) 100 % of control; (dose: 25.0 mg/kg/injection, schedule: Q01DX009 (ip), vehicle: Klucel (hydroxypropylcellulose) (HPC)) 100 % of control; under setting [1], 102 % of control; under setting [3], 105 % of control; under setting [5], 113 % of control.
As for `CC(C)(C)OC(=O)N1CCCC1C1=N/C(=C\c2ccccc2)C(=O)O1` (configuration not stated), the T/C runs as follows: (dose: 50.0 mg/kg/injection, schedule: Q01DX005 (ip), vehicle: saline with Tween-80) 102 % of control; (dose: 100.0 mg/kg/injection, schedule: Q01DX005 (ip), vehicle: saline with Tween-80) 111 % of control; (dose: 200.0 mg/kg/injection, schedule: Q01DX005 (ip), vehicle: saline with Tween-80) 105 % of control.
Turning to `CC(CC(=O)c1ccccc1)=NCCCCCN=C(C)CC(=O)c1ccccc1`, the T/C is 100 % of control under setting [7]; 102 % of control (dose: 100.0 mg/kg/injection, schedule: Q01DX009 (ip), vehicle: saline with Tween-80); 100 % of control (dose: 200.0 mg/kg/injection, schedule: Q01DX009 (ip), vehicle: saline with Tween-80).
For the compound `O=C(O)CCN1C(=S)CSC1=S`, the T/C is 107 % of control under setting [1], 103 % of control under setting [3] and 100 % of control under setting [5].
As to `COc1cccc2c1C(=O)c1c(O)c3c(c(O)c1C2=O)C[C@@](O)(C(=O)CO)C[C@@H]3OC1CC(OC(C)=O)C(OC(C)=O)C(C)O1` (some centres not stated), the T/C was 99 % of control and 123 % of control (dose: 3.13 mg/kg/injection, schedule: Q04DX003 (ip), vehicle: distilled water + Tween-80); 123 % of control (dose: 6.25 mg/kg/injection, schedule: Q04DX003 (ip), vehicle: distilled water + Tween-80); 163 % of control (dose: 12.5 mg/kg/injection, schedule: Q04DX003 (ip), vehicle: distilled water + Tween-80); 185 % of control and 192 % of control (dose: 25.0 mg/kg/injection, schedule: Q04DX003 (ip), vehicle: distilled water + Tween-80); 211 % of control and 269 % of control (dose: 50.0 mg/kg/injection, schedule: Q04DX003 (ip), vehicle: distilled water + Tween-80).
Regarding `CC1(C)C2CCC(C2)C1/C=C1/SC(=S)NC1=O` (configuration not stated), the T/C by setting is: (dose: 50.0 mg/kg/injection, schedule: Q01DX005 (ip), vehicle: Klucel (hydroxypropylcellulose) (HPC)) 99 % of control; (dose: 100.0 mg/kg/injection, schedule: Q01DX005 (ip), vehicle: Klucel (hydroxypropylcellulose) (HPC)) 100 % of control; (dose: 200.0 mg/kg/injection, schedule: Q01DX005 (ip), vehicle: Klucel (hydroxypropylcellulose) (HPC)) 100 % of control.
Consider `COCCOC(=O)CCn1nc(-c2ccccc2)c(-c2ccccc2)c(C#N)c1=O`, for which the T/C (dose: 100.0 mg/kg/injection, schedule: Q04DX002 (ip), vehicle: saline with Tween-80) was 104 % of control; the T/C (dose: 200.0 mg/kg/injection, schedule: Q04DX002 (ip), vehicle: saline with Tween-80) was 106 % of control; the T/C (dose: 400.0 mg/kg/injection, schedule: Q04DX002 (ip), vehicle: saline with Tween-80) is 100 % of control.
For `N/C(=N\OC(=O)Nc1ccc(Cl)c(Cl)c1)c1ccccc1`, the T/C reads like this: under setting [2], 101 % of control; under setting [4], 104 % of control; under setting [6], 100 % of control.

(Values after PubChem BioAssay AID330 (DTP/NCI, 2004).)
